Measured values: ChEMBL document CHEMBL1201862, “PubChem BioAssay data set” (2004)
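Following 48 hours of exposure in 96-well plates, responses at five concentrations were used to interpolate endpoints linearly. The concentration for 50% growth inhibition is given as GI50.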 Active and inactive are the calls of the source. Rule as the data show it: active = GI50 up to about 1.1 µM and inactive = higher.

Columns and labels:
Experiment in all cases: DTP human tumour cell line panel, 48 h
HCC 2998 = tested on: HCC 2998
SF-268 = tested on: SF-268
SK-MEL-2 = tested on: SK-MEL-2
SF-295 = tested on: SF-295
HOP-62 = tested on: HOP-62
OVCAR-5 = tested on: OVCAR-5
BT-549 = tested on: BT-549
SK-MEL-5 = tested on: SK-MEL-5
TK-10 = tested on: TK-10
NCI-H226 = tested on: NCI-H226
RXF 393 = tested on: RXF 393
MOLT-4 = tested on: MOLT-4
U-251 = tested on: U-251
MCF7 = tested on: MCF7
MDA-MB-231 = tested on: MDA-MB-231
HT-29 = tested on: HT-29
ACHN = tested on: ACHN
LOX IMVI = tested on: LOX IMVI
MDA-MB-435 = tested on: MDA-MB-435
NCI-H23 = tested on: NCI-H23

Measured: GI50

COC(=O)NC1C(C)OC(OC2C/C=C(/C)C3C=CC4C(OC5CC(OC6CC(O)C(OC7CC(O)C(OC)C(C)O7)C(C)O6)C(O)C(C)O5)C(C)CC(C)C4C3(C)C(=O)C3=C(O)C4(CC(C)C(CO)=CC4/C=C\2C)OC3=O)CC1(C)[N+](=O)[O-] (stereo not given)
inactive: HCC 2998 16.6 µM | SF-268 14.8 µM | SK-MEL-2 11.4 µM | SF-295 16.6 µM | HOP-62 15.4 µM | OVCAR-5 17.9 µM | BT-549 13.5 µM | SK-MEL-5 15.6 µM | TK-10 10 µM | NCI-H226 11.7 µM | RXF 393 12.3 µM | MOLT-4 3.72 µM | U-251 10.9 µM | MCF7 2.71 µM | MDA-MB-231 12.6 µM | HT-29 15.7 µM | ACHN 12.6 µM | LOX IMVI 11.5 µM | MDA-MB-435 8.75 µM | NCI-H23 11.9 µM

CCC(C)(C)c1ccc(Oc2cccc(C(=O)O)c2)cc1
inactive: HCC 2998 93.3 µM | SF-268 46.8 µM | SK-MEL-2 45.2 µM | SF-295 38.3 µM | HOP-62 64.7 µM | OVCAR-5 > 100 µM | BT-549 66.7 µM | SK-MEL-5 43.1 µM | TK-10 > 100 µM | NCI-H226 39.9 µM | RXF 393 98.6 µM | MOLT-4 29.9 µM | U-251 41.8 µM | MCF7 36.8 µM | MDA-MB-231 > 100 µM | HT-29 44.4 µM | ACHN 58.9 µM | LOX IMVI 50.4 µM | MDA-MB-435 45 µM | NCI-H23 52.2 µM

COc1ccc(C2CC(c3ccc(NS(=O)(=O)c4cc([N+](=O)[O-])ccc4C)cc3)=NN2S(=O)(=O)c2cc([N+](=O)[O-])ccc2C)cc1 (stereo not given)
inactive: HCC 2998 10.5 µM | SF-268 22.8 µM | SK-MEL-2 35.6 µM | SF-295 33 µM | HOP-62 80 µM | OVCAR-5 > 100 µM | BT-549 36 µM | SK-MEL-5 42.2 µM | TK-10 52.6 µM | NCI-H226 > 100 µM | RXF 393 > 100 µM | MOLT-4 33.3 µM | U-251 36.8 µM | MCF7 39 µM | MDA-MB-231 43.6 µM | HT-29 50.4 µM | ACHN 63.4 µM | LOX IMVI 68.1 µM | MDA-MB-435 46 µM | NCI-H23 22.4 µM

O=S(=O)(c1cc(Cl)ccc1Cl)n1ccnc1
inactive: HCC 2998 15.8 µM | SF-268 45.1 µM | SK-MEL-2 30.5 µM | SF-295 > 100 µM | HOP-62 48 µM | OVCAR-5 35.5 µM | BT-549 35.4 µM | SK-MEL-5 18.8 µM | TK-10 24.1 µM | NCI-H226 14.5 µM | RXF 393 28 µM | MOLT-4 32.6 µM | U-251 33 µM | MCF7 35 µM | MDA-MB-231 23.4 µM | HT-29 29.2 µM | ACHN 76.7 µM | LOX IMVI 37.7 µM | MDA-MB-435 18.2 µM | NCI-H23 20.9 µM
